Consider six molecules from patent US5955426A, “Cyclic hexapeptide somatostatin analogues” (Diatide, Inc., priority 1997, dated 1999).

Molecules are shown by their SMILES. Square brackets hold non-standard residues; d marks the D form. Peptide text beside a SMILES is read from it. * marks the point of attachment. X11 = NCCCC[C@H](NC(=O)C*)C(=O)NCCCC[C@H](N)C(=O)NCC(=O)N[C@@H](CS)C(N)=O; X13 = CC(=O)NCSC[C@H](NC(=O)CNC(=O)[C@H](CSCNC(C)=O)NC(=O)C*)C(N)=O; X7 = NC(=O)[C@H](CS)NC(=O)CNC(=O)[C@@H](N)CCCCNC(=O)C*; X5 = O=C(CNC(=O)[C@H](CS)NC(=O)C*)N[C@@H](CS)C(=O)O; X6 = NC(=O)[C@H](CS)NC(=O)CNC(=O)[C@H](CS)NC(=O)C*; X12 = NC(=O)[C@H](CS)NC(=O)CNC(=O)CNC(=O)C*; NMeF = CN[C@@H](Cc1ccccc1)C(=O)O; hCys = N[C@@H](CCS)C(=O)O

This experiment deals with T1, somatostatin receptor (Rattus norvegicus, UniProt P30680).
T1 construct: endogenous in cells; host or cells: AR42J rat pancreatic tumor cell line (membrane preparation)
T1 sequence (P30680 whole entry): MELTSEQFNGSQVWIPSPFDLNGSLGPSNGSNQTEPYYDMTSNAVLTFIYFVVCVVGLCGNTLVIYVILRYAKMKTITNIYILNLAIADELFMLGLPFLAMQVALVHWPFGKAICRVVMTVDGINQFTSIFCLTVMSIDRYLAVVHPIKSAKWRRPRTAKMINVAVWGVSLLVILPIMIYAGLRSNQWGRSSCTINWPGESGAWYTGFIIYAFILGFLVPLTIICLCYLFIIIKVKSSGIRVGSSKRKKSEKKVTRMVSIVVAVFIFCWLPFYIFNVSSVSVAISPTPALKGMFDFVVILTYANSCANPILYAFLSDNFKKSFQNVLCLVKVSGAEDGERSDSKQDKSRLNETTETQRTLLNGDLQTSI
As to the kind of experiment: Inhibition of binding of (125I-Tyr11)somatostatin-14 to AR42J rat pancreatic tumor cell membranes. The conditions noted are these: 0.5 nM (125I-Tyr11)somatostatin-14, 25 min at 30° C., read-out: K1 (inhibition constant). The procedure:
Inhibition of Binding of (^125 I-Tyr^11)somatostatin-14 to AR42J Rat Pancreatic Tumor Cell Membranes
The rat pancreatic tumor cell line AR42J which expresses the somatostatin receptor was cultured in Dulbecco's minimal essential media (DMEM) supplemented with 10% fetal bovine serum (FBS) and 8 mM glutamine in a humidified 5% CO2 atmosphere at 37° C. in T-flasks. Harvested cells were homogenized in cold 50 mM Tris-HCl buffer (pH 7.4) and the homogenate then centrifuged at 39,000 g for 10 min at 4° C. Pellets were washed once with buffer and then resuspended in an ice-cold solution of 10 mM Tris-HCl (pH 7.4). Equal aliquots of this cell membrane preparation were incubated with (^125 I-Tyr^11)somatostatin-14 (at a final concentration of 0.5 nM and 750,000 cpm/mL, at a specific activity of 2000 Ci/mmol, Amersham, Arlington Heights, Ill.) and peptide at a final concentration of from 10^-11 M to 10^-6 M in a solution of 50 mM HEPES (pH 7.4) containing 1% bovine serum albumin (BSA), 5 mM MgCl2, Trasylol (200,000 International Units), bacitracin (0.02 mg/mL) and phenylmethylsulfonylfluoride (0.02 mg/mL) for 25 min at 30° C. Using a filtration manifold, this mixture was filtered through a polyethyleneimine-washed GC/F filter (Whatman, Maidstone, England), and the residue remaining on the filter washed thrice with 5 mL cold HEPES buffer. The filter and a sample of the filter washings were then counted in a gamma counter. To assess non-specific binding, the assay was performed in the presence of unlabeled somatostatin-14 at 200 nM. Data analysis including Hill plots of the data provided inhibition constants (see Bylund & Yamamura, "Methods of receptor binding", in Methods in Neurotransmitter Receptor Analysis, Yamamura et al., eds., Raven Press: New York, 1990).
On to `CC(C)[C@@H]1NC(=O)[C@H](CCCCN)NC(=O)[C@@H](Cc2c[nH]c3ccccc23)NC(=O)[C@H](Cc2ccc(O)cc2)NC(=O)[C@H](Cc2ccccc2)N(C)C(=O)[C@H](CCSCC(=O)NCCCC[C@H](N)C(=O)NCC(=O)N[C@@H](CS)C(N)=O)NC1=O` [cyclo.(N-CH3)FYWD KV.Hcy(CH2 CO.(ε-K)GC.amide)] (cyclo([NMeF]Y[dW]KV[hCys](X7))), for which the Ki is 2 nM. Consider `CC(=O)NCSC[C@H](NC(=O)CNC(=O)[C@H](CSCNC(C)=O)NC(=O)CSCC[C@@H]1NC(=O)[C@H](C(C)C)NC(=O)[C@H](CCCCN)NC(=O)[C@@H](Cc2c[nH]c3ccccc23)NC(=O)[C@H](Cc2ccc(O)cc2)NC(=O)[C@H](Cc2ccccc2)N(C)C1=O)C(N)=O` [cyclo.(N-CH3)FYWD KV.Hcy(CH2 CO.CAcm GCAcm.amide)] (cyclo(KV[hCys](X13)[NMeF]Y[dW])), for which the Ki was 0.79 nM. Next, `CC(C)[C@@H]1NC(=O)[C@H](CCCCN)NC(=O)[C@@H](Cc2c[nH]c3ccccc23)NC(=O)[C@H](Cc2ccc(O)cc2)NC(=O)[C@H](Cc2ccccc2)N(C)C(=O)[C@H](CCSCC(=O)N[C@@H](CS)C(=O)NCC(=O)N[C@@H](CS)C(=O)O)NC1=O` [cyclo.(N-CH3)FYWD KV.Hcy(CH2 CO.CGC)] (cyclo(KV[hCys](X5)[NMeF]Y[dW])): 1.8 nM; `CC(C)[C@@H]1NC(=O)[C@H](CCCCN)NC(=O)[C@@H](Cc2c[nH]c3ccccc23)NC(=O)[C@H](Cc2ccc(O)cc2)NC(=O)[C@H](Cc2ccccc2)N(C)C(=O)[C@H](CCSCC(=O)N[C@@H](CS)C(=O)NCC(=O)N[C@@H](CS)C(N)=O)NC1=O` [cyclo.(N-CH3)FYWD KV.Hcy(CH2 CO.CGC.amide)] (cyclo([NMeF]Y[dW]KV[hCys](X6))): 1.5 nM. `CC(C)[C@@H]1NC(=O)[C@H](CCCCN)NC(=O)[C@@H](Cc2c[nH]c3ccccc23)NC(=O)[C@H](Cc2ccc(O)cc2)NC(=O)[C@H](Cc2ccccc2)N(C)C(=O)[C@H](CCSCC(=O)NCC(=O)NCC(=O)N[C@@H](CS)C(N)=O)NC1=O` [cyclo.(N-CH3)FYWD KV.Hcy(CH2 CO.GGC.amide)] (cyclo([NMeF]Y[dW]KV[hCys](X12))): the Ki was 2.4 nM. As to `CC(C)[C@@H]1NC(=O)[C@H](CCCCN)NC(=O)[C@@H](Cc2c[nH]c3ccccc23)NC(=O)[C@H](Cc2ccc(O)cc2)NC(=O)[C@H](Cc2ccccc2)N(C)C(=O)[C@H](CCSCC(=O)N[C@@H](CCCCN)C(=O)NCCCC[C@H](N)C(=O)NCC(=O)N[C@@H](CS)C(N)=O)NC1=O` [cyclo.(N-CH3)FYWD KV.Hcy(CH2 CO.K(ε-K)GC.amide)] (cyclo([NMeF]Y[dW]KV[hCys](X11))), the Ki was determined as 0.65 nM.
